The term EC50 denotes the concentration needed to bring the measured effect to its halfway point. In general, IC50 refers to the point on the concentration scale where inhibition reaches its midpoint. Broadly, the AC50 is the concentration giving half of the maximal activity seen.

EC50, IC50 and AC50 data for five compounds are collected here from ChEMBL document CHEMBL1201862, “PubChem BioAssay data set” (2004).

In assay [1] the target is T1, Heat shock factor protein 1 (Mus musculus, UniProt P38532).
T1 sequence (P38532 whole entry): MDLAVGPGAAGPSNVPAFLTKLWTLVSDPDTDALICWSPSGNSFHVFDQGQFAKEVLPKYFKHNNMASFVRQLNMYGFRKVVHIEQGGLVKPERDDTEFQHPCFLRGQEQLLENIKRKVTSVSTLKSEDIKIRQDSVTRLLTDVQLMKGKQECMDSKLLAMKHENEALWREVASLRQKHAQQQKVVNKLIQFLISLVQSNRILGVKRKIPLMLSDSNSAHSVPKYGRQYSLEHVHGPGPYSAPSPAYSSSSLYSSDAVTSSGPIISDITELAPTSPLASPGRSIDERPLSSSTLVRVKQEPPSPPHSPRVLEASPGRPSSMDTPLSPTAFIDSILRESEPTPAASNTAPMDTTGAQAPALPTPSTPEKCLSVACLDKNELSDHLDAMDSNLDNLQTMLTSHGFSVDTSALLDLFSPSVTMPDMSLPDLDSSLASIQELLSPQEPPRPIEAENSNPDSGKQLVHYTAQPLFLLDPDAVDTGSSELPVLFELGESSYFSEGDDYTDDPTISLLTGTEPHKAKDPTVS
The experiment in a line: decrease of HSF1-responsive luciferase luminescence – cell-based, NIH3T3, dose retest, confirmation (AID 2382).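 Note: NIH3T3 fibroblasts with HSF1-driven luciferase reporter stressed by proteasome inhibitor MG132; luminescence from HSF1-driven luciferase expression after 8 hours of MG132 stress.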 Type of assay: functional.

In assay [2] the test system is HEK293. Kind of assay: cells. The following applies: Homo sapiens. It counts as functional, cell-based.
In assay [3] the test system is HEK293. Kind of assay: inhibition of NOD1-driven NF-kB reporter – cell-based, luminescence, uHTS, primary screen (AID 1578). Type of assay: functional. The following applies: Homo sapiens.
Assay [4] has as its target T2, Hexokinase HKDC1 (Homo sapiens, UniProt Q2TB90).
T2 sequence (Q2TB90 whole entry): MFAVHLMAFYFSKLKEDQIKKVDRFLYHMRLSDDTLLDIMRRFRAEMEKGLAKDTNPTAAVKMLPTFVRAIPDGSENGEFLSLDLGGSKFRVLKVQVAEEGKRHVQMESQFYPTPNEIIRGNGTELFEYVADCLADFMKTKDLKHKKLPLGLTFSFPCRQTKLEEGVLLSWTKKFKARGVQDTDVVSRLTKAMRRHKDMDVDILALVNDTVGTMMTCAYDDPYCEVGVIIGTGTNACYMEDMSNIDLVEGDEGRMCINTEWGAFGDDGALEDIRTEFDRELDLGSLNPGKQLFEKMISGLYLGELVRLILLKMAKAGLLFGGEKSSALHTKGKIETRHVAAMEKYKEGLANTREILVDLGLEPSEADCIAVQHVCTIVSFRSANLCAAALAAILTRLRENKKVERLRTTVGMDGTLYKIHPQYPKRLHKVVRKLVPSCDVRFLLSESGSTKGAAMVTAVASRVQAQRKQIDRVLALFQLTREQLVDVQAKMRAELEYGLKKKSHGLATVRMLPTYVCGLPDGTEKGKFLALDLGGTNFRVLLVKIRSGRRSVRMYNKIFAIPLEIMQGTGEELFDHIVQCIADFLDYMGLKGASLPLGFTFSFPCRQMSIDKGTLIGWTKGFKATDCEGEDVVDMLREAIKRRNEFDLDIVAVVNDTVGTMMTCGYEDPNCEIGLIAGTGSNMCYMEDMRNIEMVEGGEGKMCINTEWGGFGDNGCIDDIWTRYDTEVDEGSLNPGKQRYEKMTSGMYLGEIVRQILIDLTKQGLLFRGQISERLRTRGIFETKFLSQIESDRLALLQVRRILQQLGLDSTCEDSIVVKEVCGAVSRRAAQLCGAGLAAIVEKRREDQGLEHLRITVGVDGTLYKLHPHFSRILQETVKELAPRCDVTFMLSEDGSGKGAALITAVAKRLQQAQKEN
Kind of assay: activation of HKDC1 glucose phosphorylation – biochemical, W721R variant, dose response (AID 504730). It counts as functional.

In assay [5] the test system is HEK293. Kind of assay: cells. As to conditions: Homo sapiens. It counts as functional, cell-based. The source holds these as a separate data set.
The target in assay [6] is Nucleotide-binding oligomerization domain-containing protein 2 (Homo sapiens, UniProt Q9HC29). Kind of assay: inhibition of NOD2-driven NF-kB reporter – cell-based, luminescence, uHTS, HEK293 (AID 1566). It counts as functional.
Sequence of Nucleotide-binding oligomerization domain-containing protein 2 (Q9HC29 whole entry, the tested form may be a part): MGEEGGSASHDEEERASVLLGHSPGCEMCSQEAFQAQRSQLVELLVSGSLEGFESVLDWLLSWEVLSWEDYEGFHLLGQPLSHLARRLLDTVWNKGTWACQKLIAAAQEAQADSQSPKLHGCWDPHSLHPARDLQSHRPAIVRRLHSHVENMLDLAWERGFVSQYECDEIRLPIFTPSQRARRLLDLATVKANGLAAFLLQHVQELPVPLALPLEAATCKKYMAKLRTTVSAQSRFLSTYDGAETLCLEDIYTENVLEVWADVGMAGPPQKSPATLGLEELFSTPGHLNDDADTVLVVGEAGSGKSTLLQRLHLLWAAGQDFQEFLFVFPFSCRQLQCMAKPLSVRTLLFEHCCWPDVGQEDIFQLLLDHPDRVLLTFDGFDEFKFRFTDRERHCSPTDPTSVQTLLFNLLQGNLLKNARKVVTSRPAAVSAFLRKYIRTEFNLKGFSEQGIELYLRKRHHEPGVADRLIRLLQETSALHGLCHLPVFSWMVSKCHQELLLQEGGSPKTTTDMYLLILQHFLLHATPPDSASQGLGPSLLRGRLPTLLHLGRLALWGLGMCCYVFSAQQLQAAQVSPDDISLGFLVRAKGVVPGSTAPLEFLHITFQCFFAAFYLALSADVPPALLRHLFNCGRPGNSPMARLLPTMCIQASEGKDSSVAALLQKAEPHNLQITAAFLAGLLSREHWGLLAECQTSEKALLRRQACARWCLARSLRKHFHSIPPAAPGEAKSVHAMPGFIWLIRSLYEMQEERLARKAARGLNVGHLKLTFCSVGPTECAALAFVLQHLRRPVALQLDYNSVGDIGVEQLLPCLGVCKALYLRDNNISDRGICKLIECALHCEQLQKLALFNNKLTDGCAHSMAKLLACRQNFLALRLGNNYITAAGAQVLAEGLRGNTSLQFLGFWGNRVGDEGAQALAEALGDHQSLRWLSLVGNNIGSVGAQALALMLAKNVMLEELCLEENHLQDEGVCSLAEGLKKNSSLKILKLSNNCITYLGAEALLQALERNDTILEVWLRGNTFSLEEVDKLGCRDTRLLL
For assay [7], the target named is Hexokinase-1 (Homo sapiens, UniProt P19367). Kind of assay: HK1 enzyme activation by HKDC1 hits – biochemical, selectivity assay for HKDC1 activator project, dose response (AID 504762). Type of assay: functional.
Sequence of Hexokinase-1 (P19367 whole entry): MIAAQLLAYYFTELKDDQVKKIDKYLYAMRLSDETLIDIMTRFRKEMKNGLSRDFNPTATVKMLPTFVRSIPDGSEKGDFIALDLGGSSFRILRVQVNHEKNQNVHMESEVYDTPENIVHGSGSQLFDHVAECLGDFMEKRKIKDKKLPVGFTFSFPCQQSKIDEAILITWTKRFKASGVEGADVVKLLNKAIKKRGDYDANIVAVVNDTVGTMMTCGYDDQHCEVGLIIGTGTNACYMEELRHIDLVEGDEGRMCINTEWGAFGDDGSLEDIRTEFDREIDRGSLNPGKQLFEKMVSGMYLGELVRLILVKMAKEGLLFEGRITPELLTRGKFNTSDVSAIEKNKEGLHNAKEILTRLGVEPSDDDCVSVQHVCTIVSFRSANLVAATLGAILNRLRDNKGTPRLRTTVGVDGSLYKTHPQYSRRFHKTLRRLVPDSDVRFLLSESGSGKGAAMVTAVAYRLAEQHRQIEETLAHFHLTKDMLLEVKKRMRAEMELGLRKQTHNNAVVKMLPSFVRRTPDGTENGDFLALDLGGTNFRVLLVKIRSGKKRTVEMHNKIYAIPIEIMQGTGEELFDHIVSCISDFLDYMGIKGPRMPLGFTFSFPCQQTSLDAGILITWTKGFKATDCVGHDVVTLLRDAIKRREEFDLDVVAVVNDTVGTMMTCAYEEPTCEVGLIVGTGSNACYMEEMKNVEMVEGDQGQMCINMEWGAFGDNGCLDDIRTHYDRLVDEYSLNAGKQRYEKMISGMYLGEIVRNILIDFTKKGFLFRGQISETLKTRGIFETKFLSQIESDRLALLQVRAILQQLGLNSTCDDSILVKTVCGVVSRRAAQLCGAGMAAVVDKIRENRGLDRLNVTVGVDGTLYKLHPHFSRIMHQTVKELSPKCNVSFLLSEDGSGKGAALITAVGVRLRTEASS
The subject of assay [8] is INS1. The experiment in a line: INS-1E survival protection against cytokine death – cell-based, luminescence, retest, dose response (AID 449756).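 Note: cell death triggered by IL-1 beta plus TNF-alpha plus IFN-gamma mixture; protective hits raise ATP signal compared with cytokine alone wells.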 The following applies: Rattus norvegicus. It counts as functional.
The test system of assay [9] is HEK293. The experiment in a line: NOD2 signaling inhibitors in MDP-stimulated cells, cell-based, uHTS, luminescence (AID 2001). It counts as functional. As to conditions: Homo sapiens.
Assay [10] relates to HEK293. Kind of assay: cells. It counts as functional, cell-based. The following applies: Homo sapiens. This is another data set of the same source.
In assay [11] the target is T3, Orexin receptor type 2 (Homo sapiens, UniProt O43614).
T3 sequence (O43614 whole entry): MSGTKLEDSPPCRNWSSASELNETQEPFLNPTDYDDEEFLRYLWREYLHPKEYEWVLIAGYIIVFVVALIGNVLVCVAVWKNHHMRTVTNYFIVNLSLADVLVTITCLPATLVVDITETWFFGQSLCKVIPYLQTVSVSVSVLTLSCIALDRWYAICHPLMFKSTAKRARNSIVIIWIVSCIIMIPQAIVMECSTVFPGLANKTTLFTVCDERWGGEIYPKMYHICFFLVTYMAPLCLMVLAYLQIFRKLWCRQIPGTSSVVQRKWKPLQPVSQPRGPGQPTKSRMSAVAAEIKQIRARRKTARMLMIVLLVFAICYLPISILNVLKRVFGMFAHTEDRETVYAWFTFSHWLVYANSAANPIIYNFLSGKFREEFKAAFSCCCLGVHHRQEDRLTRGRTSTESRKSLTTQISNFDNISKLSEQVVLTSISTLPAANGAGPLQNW
Kind of assay: Counterscreen assay for antagonists of the orexin 1 receptor (OX1R; HCRTR1): Fluorescence-based cell-based dose response assay for antagonists of the orexin 2 receptor (OX2R; HCRTR2), run by assay provider. Type of assay: functional. A general note: Counterscreens check selectivity or assay interference.

For assay [12], the target named is T4, Orexin/Hypocretin receptor type 1 (Homo sapiens, UniProt O43613).
T4 sequence (O43613 whole entry): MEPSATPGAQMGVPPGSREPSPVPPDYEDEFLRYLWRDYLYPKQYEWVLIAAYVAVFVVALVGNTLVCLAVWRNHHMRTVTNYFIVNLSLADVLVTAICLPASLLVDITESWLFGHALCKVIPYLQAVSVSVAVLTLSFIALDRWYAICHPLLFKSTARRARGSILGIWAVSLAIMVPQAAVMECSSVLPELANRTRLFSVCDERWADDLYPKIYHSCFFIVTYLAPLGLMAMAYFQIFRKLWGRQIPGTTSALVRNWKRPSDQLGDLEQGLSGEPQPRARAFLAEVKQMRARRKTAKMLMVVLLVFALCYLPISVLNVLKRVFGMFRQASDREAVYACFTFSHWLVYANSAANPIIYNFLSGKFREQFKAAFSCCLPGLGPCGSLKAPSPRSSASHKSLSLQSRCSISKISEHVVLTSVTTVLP
The experiment in a line: Homogeneous Time Resolved Fluorescence (HTRF)-based cell-based high throughput dose response assay for antagonists of the orexin 1 receptor (OX1R; HCRTR1). [Related pubchem assays (depositor defined):AID434989, AID435008, AID463079, AID485270, AID492963, AID492964, AID492965, AID493232, AID504717, AID504718]. It counts as functional. Background: TR-FRET usually uses a lanthanide donor and a delayed reading to cut background.

Assay [13] has as its target T3, Orexin receptor type 2. The experiment in a line: Counterscreen assay for antagonists of the orexin 1 receptor (OX1R; HCRTR1): Homogeneous Time Resolved Fluorescence (HTRF)-based cell-based dose response assay for antagonists of the orexin 2 receptor (OX2R; HCRTR2), run by assay provider. Type of assay: functional.
The test system of assay [14] is CHO-K1. The experiment in a line: Counterscreen for antagonists of the orexin 1 receptor (OX1R; HCRTR1): Homogeneous time resolved fluorescence (HTRF)-based cell-based dose response assay to identify antagonists of the parental CHO-K1 cell line. [Related pubchem assays (depositor defined):AID434989, AID435008, AID463079, AID485270, AID492963, AID492964, AID492965, AID493232, AID504699, AID504701]. The following applies: Cricetulus griseus. Type of assay: functional.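 Note: potency for inhibition of ATP-stimulated IP1 production as antagonists.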

Assay [15] addresses T4, Orexin/Hypocretin receptor type 1. Kind of assay: Fluorescence-based cell-based high throughput dose response assay for antagonists of the orexin 1 receptor (OX1R; HCRTR1). [Related pubchem assays (depositor defined):AID434989, AID435008, AID463079, AID485270, AID492963, AID492964, AID492965, AID493232, AID504717, AID504718]. Type of assay: functional.
Assay [16] in a line: Counterscreen for antagonists of the orexin 1 receptor (OX1R; HCRTR1): Fluorescence-based cell-based high throughput dose response assay to identify antagonists of the parental CHO cell line. [Related pubchem assays (depositor defined):AID434989, AID435008, AID463079, AID485270, AID492963, AID492964, AID492965, AID493232, AID504699, AID504701]. Type of assay: functional.
Assay [17] deals with Signal transducer and activator of transcription 1-alpha/beta (Homo sapiens, UniProt P42224). The experiment in a line: STAT3 blockade with qPCR and toxicity readouts – cell-based, STAT1 panel, cytotoxicity, late-stage follow-up, panel member STAT1 Inhibition (AID 2078).
Sequence of Signal transducer and activator of transcription 1-alpha/beta (P42224 whole entry): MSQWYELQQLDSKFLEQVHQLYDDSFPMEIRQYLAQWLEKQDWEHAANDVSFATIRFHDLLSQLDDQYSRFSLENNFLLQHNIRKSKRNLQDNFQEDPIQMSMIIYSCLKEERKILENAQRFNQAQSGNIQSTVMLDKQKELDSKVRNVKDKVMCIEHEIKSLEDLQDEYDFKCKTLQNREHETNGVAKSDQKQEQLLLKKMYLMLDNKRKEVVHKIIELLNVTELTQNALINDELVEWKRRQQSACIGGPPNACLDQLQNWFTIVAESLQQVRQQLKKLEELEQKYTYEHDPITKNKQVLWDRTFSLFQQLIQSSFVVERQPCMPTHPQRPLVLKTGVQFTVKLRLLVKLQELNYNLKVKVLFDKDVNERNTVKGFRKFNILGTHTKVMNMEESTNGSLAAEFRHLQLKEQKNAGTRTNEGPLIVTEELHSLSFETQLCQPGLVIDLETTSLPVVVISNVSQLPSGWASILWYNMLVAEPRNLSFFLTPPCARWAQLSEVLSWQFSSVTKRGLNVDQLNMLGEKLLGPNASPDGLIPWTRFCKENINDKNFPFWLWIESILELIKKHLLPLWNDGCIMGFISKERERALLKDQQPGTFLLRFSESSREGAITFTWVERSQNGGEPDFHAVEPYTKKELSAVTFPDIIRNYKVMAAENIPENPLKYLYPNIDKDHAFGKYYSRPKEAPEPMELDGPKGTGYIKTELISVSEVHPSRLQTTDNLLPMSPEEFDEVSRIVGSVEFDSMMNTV
Assay [18] concerns the target Signal transducer and activator of transcription 3 (Homo sapiens, UniProt P40763). The experiment in a line: STAT3 blockade with qPCR and toxicity readouts – cell-based, STAT1 panel, cytotoxicity, late-stage follow-up, panel member STAT3 Inhibition (AID 2078). (In qPCR the cycle at which signal appears reflects the starting amount.)
Assay [19] in a line: Luminescence Cell-Based Dose Response HTS to Identify Inhibitors of 5'UTR Stem-Loop Driven Prion Protein mRNA Translation in H4 Neuroglioblastoma Cells. [Related pubchem assays: 1827 (Project Summary), 1813 (Primary HTS)]. Type of assay: functional.
Assay [20] in a line: luciferase reporter signal suppression in cells – H4 neuroglioma cells, luminescence, dose response (AID 1990). It counts as functional, cell-based.
A short description of assay [21]: alpha-synuclein stem-loop luciferase translation blockers – H4 neuroglioma cells, luminescence, confirmation (AID 1988). Type of assay: functional, cell-based.
In assay [22] the target is SUMO-activating enzyme (Homo sapiens, UniProt Q9UBT2). Kind of assay: blockers of UBC9-mediated SUMO conjugation – biochemical, AlphaScreen, SUMOylation inhibitor project, confirmation (AID 2018). Type of assay: functional.
Sequence of SUMO-activating enzyme (Q9UBE0 whole entry): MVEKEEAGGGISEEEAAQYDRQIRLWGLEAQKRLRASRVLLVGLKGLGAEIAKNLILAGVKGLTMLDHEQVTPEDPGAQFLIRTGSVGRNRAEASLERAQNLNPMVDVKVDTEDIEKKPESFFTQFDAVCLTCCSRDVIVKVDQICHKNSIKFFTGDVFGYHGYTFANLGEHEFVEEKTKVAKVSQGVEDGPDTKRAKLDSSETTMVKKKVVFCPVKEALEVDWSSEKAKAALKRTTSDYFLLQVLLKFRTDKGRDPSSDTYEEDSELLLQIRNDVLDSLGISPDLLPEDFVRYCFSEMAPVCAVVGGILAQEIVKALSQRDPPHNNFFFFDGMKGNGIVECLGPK
Sequence of SUMO-activating enzyme (Q9UBT2 whole entry): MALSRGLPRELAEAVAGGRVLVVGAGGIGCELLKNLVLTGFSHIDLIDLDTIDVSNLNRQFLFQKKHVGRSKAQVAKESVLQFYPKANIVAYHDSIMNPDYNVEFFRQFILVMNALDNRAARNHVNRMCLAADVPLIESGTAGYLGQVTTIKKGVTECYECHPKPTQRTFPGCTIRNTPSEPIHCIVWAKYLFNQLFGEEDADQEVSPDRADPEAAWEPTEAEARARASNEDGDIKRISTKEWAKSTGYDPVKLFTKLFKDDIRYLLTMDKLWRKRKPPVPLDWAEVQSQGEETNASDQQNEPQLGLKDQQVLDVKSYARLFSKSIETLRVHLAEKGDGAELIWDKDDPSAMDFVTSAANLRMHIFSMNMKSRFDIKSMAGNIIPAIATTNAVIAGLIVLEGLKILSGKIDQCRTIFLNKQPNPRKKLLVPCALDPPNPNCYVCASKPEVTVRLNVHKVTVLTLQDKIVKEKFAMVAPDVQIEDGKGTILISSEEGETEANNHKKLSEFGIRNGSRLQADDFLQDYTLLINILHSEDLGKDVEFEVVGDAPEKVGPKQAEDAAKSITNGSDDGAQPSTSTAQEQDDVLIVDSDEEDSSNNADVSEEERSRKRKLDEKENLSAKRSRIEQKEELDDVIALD

Active and inactive are the calls of the source.

Sequence of Signal transducer and activator of transcription 3 (P40763 whole entry): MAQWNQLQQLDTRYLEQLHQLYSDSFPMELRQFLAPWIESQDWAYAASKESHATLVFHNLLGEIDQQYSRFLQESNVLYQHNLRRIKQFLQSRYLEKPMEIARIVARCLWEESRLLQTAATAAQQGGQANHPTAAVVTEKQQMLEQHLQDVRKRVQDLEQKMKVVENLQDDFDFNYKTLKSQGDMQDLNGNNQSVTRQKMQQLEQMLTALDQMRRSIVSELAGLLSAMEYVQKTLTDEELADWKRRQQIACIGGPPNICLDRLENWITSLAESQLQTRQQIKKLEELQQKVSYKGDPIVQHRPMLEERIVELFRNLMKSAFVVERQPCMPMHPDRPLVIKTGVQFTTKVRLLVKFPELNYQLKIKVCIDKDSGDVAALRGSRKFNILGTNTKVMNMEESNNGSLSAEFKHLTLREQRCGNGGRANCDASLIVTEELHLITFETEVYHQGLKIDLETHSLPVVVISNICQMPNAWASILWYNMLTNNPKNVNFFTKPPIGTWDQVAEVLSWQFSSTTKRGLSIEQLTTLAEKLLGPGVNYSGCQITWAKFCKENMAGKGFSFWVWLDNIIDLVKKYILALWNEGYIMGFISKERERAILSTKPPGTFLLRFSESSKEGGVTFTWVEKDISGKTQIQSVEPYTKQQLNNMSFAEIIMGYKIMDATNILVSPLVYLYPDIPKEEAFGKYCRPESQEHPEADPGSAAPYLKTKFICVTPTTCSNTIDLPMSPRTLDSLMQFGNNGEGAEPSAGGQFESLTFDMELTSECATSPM

Consider `CCCOc1ccc(/C=N/NC(=S)Nc2ccccc2[N+](=O)[O-])c(O)c1`, for which the concentration for a half-maximal effect (EC50) was 11 µM (active) in assay [1]; 11.9 µM (active) in assay [3]; 26.5 µM (inactive) in assay [4]; 0.78 µM (active) in assay [6]; > 80 µM (inactive) in assay [7]. The IC50 in [2] was > 20 µM (inactive); in assay [5], 1.82 µM (active); in assay [9], 0.233 µM (active); in assay [10], > 20 µM (inactive). In addition, the AC50 in assay [8] is 1.28 µM (active).

With `CNc1nc(Nc2ccc(C)c(Cl)c2)c2cnn(C)c2n1`, the IC50 in assay [11] is > 88.8 µM (inactive); in assay [12] it was 2.07 µM (active); in assay [13], > 50 µM (inactive); in [14], > 66.2 µM (inactive); in assay [15], 14.4 µM (inactive); in assay [16], > 49.8 µM (inactive).

`COc1ccc2c(c1)nc(O)c1sc3ccccc3c12`: the IC50 in [11] was 5.5 µM (active); in assay [12] it was 2.49 µM (active); in [13], > 50 µM (inactive); in assay [14] it was > 66.2 µM (inactive); in [15], 7.77 µM (active); in assay [16], > 49.7 µM (inactive).

As to `COC(=O)c1cc2c(N3CCC(Cc4ccccc4)CC3)ncnc2s1`, the IC50 in [17] is > 55.7 µM (inactive); in assay [18], > 18.6 µM (inactive).

For the compound `C=CCn1c(N)c(C(=O)Nc2ccccc2)c2nc3ccccc3nc21`, the values for the EC50 in [19], in assay [20] and in assay [21] were > 120 µM (not active), 22 µM (active) and > 120 µM (not active), respectively. Also, the IC50 in assay [22] is 14.5 µM (active).
